In the NIST ThermoML archive (doi:10.1016/j.jct.2016.06.010):
Numbers after ± are expanded uncertainties.

Columns and labels:
[1] = 293.15 K; 101.33 kPa; Liquid; Vibrating tube method
[2] = refractive index (Na D-line) (dimensionless); conditions: 293.15 K; 101.33 kPa; Liquid; Standard Abbe refractometry

Row | SMILES | mass density [1] | refractive index [2]
1 | CC12CCC(CC1)C(C)(C)O2 [1,3,3-trimethyl-2-oxabicyclo[2.2.2]octane] | 924.84 ± 2 kg/m3 | 1.45756 ± 0.0011
2 | CCCCO [butan-1-ol] | 809.75 ± 2 kg/m3 | 1.39911 ± 0.001
3 | CCO [ethanol] | 789.38 ± 2 kg/m3 | 1.36134 ± 0.001
4 | CO [methanol] | 791.2 ± 2 kg/m3 | 1.32826 ± 0.001
5 | CCCO [propan-1-ol] | 803.85 ± 2 kg/m3 | 1.38461 ± 0.001
